The supplement of paper PMC10307832

Legend:
Assay in all cases: relative viability (nuclei count vs DMSO), 5 days (fraction); higher = more cells survive
IDH-C35 + Phenformin = compound: Cc1ccccc1C(C(=O)NC1CCCCC1)N(C(=O)Cn1ccnc1C)c1cccc(F)c1 [IDH-C35] + N=C(N)NC(=N)NCCc1ccccc1 [Phenformin] (partner 250 µM)
How it was run: (§1)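 Values are medians from duplicate plates. Each reflects relative viability, defined as the nuclei count of treated wells over that of vehicle wells. Lung cancer cell lines in 1536-well plates were pin-tool dosed one day after seeding with one drug alone or with a fixed anchor-drug dose plus five library-drug doses (not always all listed) in √10 steps, then fixed, stained and imaged at 4× after 5 days.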

[1] = compound: CC1=C(C(=NN1)C)CC2=C(C3=C(S2)N(C(=O)N(C3=O)C)CC(C)C)C(=O)N4C[C@@H](CO4)O + CC(C)C[C@H](NC(=O)[C@H](Cc1ccccc1)NC(=O)c1cnccn1)B(O)O [Bortezomib] (partner 0.002 µM)
How it was run: as §1

[2] = compound: CC1=C(C(=NN1)C)CC2=C(C3=C(S2)N(C(=O)N(C3=O)C)CC(C)C)C(=O)N4C[C@@H](CO4)O + CC1(C)CCC(c2ccc(Cl)cc2)=C(CN2CCN(c3ccc(C(=O)NS(=O)(=O)c4ccc(N[C@H](CCN5CCOCC5)CSc5ccccc5)c(S(=O)(=O)C(F)(F)F)c4)cc3)CC2)C1 [Navitoclax] (partner 0.5 µM)
How it was run: as §1

[3] = compound: CC1=C(C(=NN1)C)CC2=C(C3=C(S2)N(C(=O)N(C3=O)C)CC(C)C)C(=O)N4C[C@@H](CO4)O + Nc1nc2[nH]cc(CCc3ccc(C(=O)N[C@@H](CCC(=O)O)C(=O)O)cc3)c2c(=O)[nH]1 [Pemetrexed] (partner 0.2 µM)
How it was run: as §1

Cell Line	relative viability (IDH-C35 + Phenformin; first compound 0.08 µM)	relative viability (IDH-C35 + Phenformin; first compound 0.253 µM)	relative viability (IDH-C35 + Phenformin; first compound 0.8 µM)	relative viability (IDH-C35 + Phenformin; first compound 2.53 µM)	relative viability (IDH-C35 + Phenformin; first compound 8 µM)	relative viability ([1]; first compound 0.0025 µM)	relative viability ([1]; first compound 0.007906 µM)	relative viability ([1]; first compound 0.025 µM)	relative viability ([1]; first compound 0.07906 µM)	relative viability ([1]; first compound 0.25 µM)	relative viability ([2]; first compound 0.0025 µM)	relative viability ([2]; first compound 0.007906 µM)	relative viability ([2]; first compound 0.025 µM)	relative viability ([2]; first compound 0.07906 µM)	relative viability ([2]; first compound 0.25 µM)	relative viability ([3]; first compound 0.0025 µM)	relative viability ([3]; first compound 0.007906 µM)	relative viability ([3]; first compound 0.025 µM)	relative viability ([3]; first compound 0.07906 µM)	relative viability ([3]; first compound 0.25 µM)
HOP-62	0.718	0.649	0.634	0.618	0.677	0.535	1.03	0.753	0.557	1.07	1.15	1.03	0.857	1.08	0.857	0.357	0.332	0.217	0.281	0.356
LC-2-ad	0.571	0.585	0.603	–	0.604	1.06	1.05	1.15	0.999	1.14	0.459	0.461	0.463	0.481	0.58	0.27	0.25	0.26	0.285	0.261
LCLC-97TM1	0.388	0.453	0.465	0.407	0.346	0.657	0.484	0.347	0.637	0.949	0.394	0.613	0.404	0.373	0.467	0.179	0.19	0.173	0.152	0.202
LOU-NH91	0.78	0.784	0.685	0.752	0.497	0.473	0.486	0.546	0.423	0.476	0.773	0.604	0.776	0.809	0.788	0.404	0.362	0.402	0.366	0.365
LU99A	1.04	0.941	0.919	0.776	0.858	1.37	1.21	1.07	1.14	1.2	0.74	0.887	0.76	0.845	0.458	0.18	0.175	0.159	0.211	0.179
LXF-289	0.543	0.507	0.524	0.508	0.517	1	0.972	1	1.02	1.07	0.885	0.904	0.94	0.935	1	0.88	0.811	0.751	0.922	0.975
NCI-H23	0.824	0.746	0.788	0.756	0.705	1.07	1.24	0.848	0.964	1.33	0.908	0.904	0.807	1.02	0.901	0.825	0.635	0.689	0.697	0.697
NCI-H322M	0.761	0.798	0.772	0.749	0.743	1.34	1.19	1.33	1.23	1.19	1.22	1.18	1.18	1.29	1.06	0.526	0.61	0.645	0.629	0.578
NCI-H441	1.07	0.866	0.72	1.01	0.807	0.822	0.34	0.626	0.636	0.707	0.473	0.577	0.686	0.763	0.678	0.253	0.299	0.263	0.244	0.263
NCI-H460	0.547	0.527	0.502	0.488	0.531	1.1	1.37	0.984	1.07	1.28	1.19	1.26	0.994	1.13	1.34	0.0637	0.0564	0.0621	0.0635	0.0733
NCI-H520	0.588	0.665	0.652	0.525	0.699	0.646	0.413	0.192	0.23	0.28	1.22	1.16	0.654	0.558	0.683	0.731	0.711	0.468	0.526	0.504
NCI-H596	0.781	0.819	0.705	–	0.786	0.997	1.11	1.05	1.15	0.98	1.06	1.16	0.931	1.01	1.16	0.481	0.544	0.484	0.481	0.488
NCI-H647	0.425	0.446	0.626	0.55	0.491	1.27	1.09	0.802	1.11	1.1	1.15	1.43	1.01	1.32	1.42	0.194	0.177	0.173	0.199	0.195
NCI-H838	0.729	0.599	0.502	0.659	0.543	0.88	1.13	0.786	0.738	0.929	1.22	1.24	1.12	1.16	1.25	0.261	0.229	0.236	0.243	0.224
NCI-H1355	0.52	0.438	0.424	0.466	0.395	1.2	1.28	1.24	1.15	1.23	0.955	0.96	1.02	0.853	0.894	1.09	1.08	1.04	0.847	0.927
NCI-H1437	0.334	0.288	0.336	0.322	0.274	0.669	0.568	0.516	0.441	0.601	1.16	1.2	1.08	1.1	1.09	0.341	0.322	0.331	0.354	0.316

Cell Line	relative viability (IDH-C35 + Phenformin; first compound 0.08 µM)	relative viability (IDH-C35 + Phenformin; first compound 0.253 µM)	relative viability (IDH-C35 + Phenformin; first compound 0.8 µM)	relative viability (IDH-C35 + Phenformin; first compound 2.53 µM)	relative viability (IDH-C35 + Phenformin; first compound 8 µM)	relative viability ([1]; first compound 0.0025 µM)	relative viability ([1]; first compound 0.007906 µM)	relative viability ([1]; first compound 0.025 µM)	relative viability ([1]; first compound 0.07906 µM)	relative viability ([1]; first compound 0.25 µM)	relative viability ([2]; first compound 0.0025 µM)	relative viability ([2]; first compound 0.007906 µM)	relative viability ([2]; first compound 0.025 µM)	relative viability ([2]; first compound 0.07906 µM)	relative viability ([2]; first compound 0.25 µM)	relative viability ([3]; first compound 0.0025 µM)	relative viability ([3]; first compound 0.007906 µM)	relative viability ([3]; first compound 0.025 µM)	relative viability ([3]; first compound 0.07906 µM)	relative viability ([3]; first compound 0.25 µM)
NCI-H1650	0.486	0.423	0.436	0.462	0.379	0.218	0.203	0.234	0.17	0.189	1.37	1.22	1.2	1.27	1.21	0.321	0.406	0.367	0.369	0.321
NCI-H1651	0.338	0.292	0.362	0.344	0.296	0.956	1.02	0.889	0.879	0.856	1.11	1.06	1.01	0.912	1.05	0.587	0.598	0.531	0.56	0.53
NCI-H1666	0.573	0.578	0.594	0.538	0.54	0.933	0.874	0.821	0.778	0.81	0.969	0.954	1.01	1.14	1.1	0.886	0.925	0.857	0.906	0.866
NCI-H1734	0.402	0.449	0.4	0.359	0.346	0.946	0.736	0.893	0.835	0.747	0.843	1.1	0.772	0.931	1.02	0.412	0.426	0.436	0.467	0.423
NCI-H1755	0.605	0.614	0.65	0.639	0.649	1.01	0.875	0.962	0.963	1.13	1.05	1.03	1	1	1.06	0.42	0.424	0.424	0.425	0.422
NCI-H1792	0.257	0.258	0.244	0.483	0.334	0.94	1.01	0.861	0.878	0.786	0.608	0.572	0.445	0.509	0.524	0.932	0.6	0.768	0.644	0.719
NCI-H1915	0.364	0.37	0.382	0.369	0.341	0.987	1.03	0.974	0.827	1.03	0.81	0.789	0.763	0.79	0.832	0.497	0.465	0.466	0.497	0.53
NCI-H1975	0.411	0.406	0.401	0.425	0.401	0.423	0.338	0.42	0.409	0.342	1.13	1.18	1.15	1.19	1.21	0.317	0.297	0.283	0.268	0.287
NCI-H1993	0.56	0.508	0.476	0.555	0.524	1.19	1.12	1.09	1.01	1.15	0.949	0.959	0.92	0.94	0.925	0.651	0.623	0.609	0.607	0.639
NCI-H2009	0.56	0.498	0.521	0.451	0.481	1.03	1.08	0.975	1.09	1.13	1.23	1.21	1.11	1.18	1.22	1.09	1.03	0.955	1.03	1.06
NCI-H2023	0.405	0.376	0.404	0.41	0.351	1.11	1.11	0.945	0.975	0.963	0.981	0.946	0.957	0.979	0.986	0.249	0.258	0.224	0.233	0.225
NCI-H2085	0.748	0.737	0.714	0.767	0.595	1.04	0.978	0.947	0.98	0.926	1.22	1.12	1.06	1.12	1.22	0.926	0.93	0.73	0.987	0.476
NCI-H2087	0.482	0.433	0.398	–	0.432	0.996	0.716	0.705	0.909	1.05	1.05	0.979	0.953	1.1	1.16	0.575	0.675	0.629	0.587	0.695
NCI-H2126	0.529	0.548	0.525	0.525	0.483	1.11	1.15	1.07	1.07	1.15	0.852	0.877	0.882	0.829	0.826	0.766	0.737	0.63	0.6	0.739
NCI-H2228	0.255	0.374	0.436	0.417	0.405	0.996	1.09	1.11	0.97	1.47	0.955	0.961	1.15	1	1.14	0.317	0.342	0.339	0.322	0.324
